Values quoted from earlier work in patent publication US20050209190A1, “Camptothecin complexes” (priority 2000, published 2005).

Assays:
[1] = tested on: human colon cancer xenografts; settings: mouse, in vivo
tumorigenic human cells = settings: in vitro
[2] = tested on: nontumorigenic human cells; settings: in vitro
[3] = administered intravenously; studies abandoned

For `CC[C@@]1(O)C(=O)OCc2c1cc1n(c2=O)Cc2cc3c(N)cccc3nc2-1` [Example 9AC, 9-Amino-20(S)-Camptothecin], the “anticancer activity against human colon cancer xenografts” value [1] is listed as “high anticancer activity”.
In the case of `CC[C@@]1(O)C(=O)OCc2c1cc1n(c2=O)Cc2cc3cc4c(cc3nc2-1)OCO4` [10,11 MD, 10,11-Methylendioxy-20(S)-Camptothecin], the “anticancer activity against human colon cancer xenografts” value [1] is listed as “high anticancer activity”.
In the case of `CC[C@@]1(O)C(=O)OCc2c1cc1n(c2=O)Cc2cc3c([N+](=O)[O-])cccc3nc2-1` [Example 9NC, 9-nitrocamptothecin], the “growth of human tumor xenografts” value (human tumor xenografts; immunodeficient nude mice) is given as “inhibited the growth”, the “activity against human tumor xenograft models” value (human tumor xenografts; mouse, in vivo) is given as “high activity” and the “regression of human tumors established as xenografts” value (human tumor xenografts; nude mice) is given as “induced regression”.
For `CC[C@@]1(O)C(=O)OCc2c1cc1n(c2=O)Cc2cc3ccccc3nc2-1` [CPT, 20(S)-camptothecin], the “effect on tumorigenic cells” value (tumorigenic human cells) is listed as “cytotoxic”, the solubility in water is listed as “insoluble in water” and the “effect on nontumorigenic cells” value [2] is listed as “cytostatic”.
For `CC[C@@](O)(C(=O)[O-])c1cc2n(c(=O)c1CO)Cc1cc3ccccc3nc1-2.[Na+]` [CPT Na+], the “potency in clinical trials” value [3] is listed as “low potency” and the “toxicity in clinical trials” value [3] is listed as “high toxicity”.
